Source: patent US9062026B2, “Fused pyrimidines and substituted quinazolines as inhibitors of p97” (Cleave Biosciences, Inc., priority 2012, dated 2015)
Where two headings read alike, the source gives them in different places.

Tests used:
[1] = biological target: p97 (Homo sapiens (Human), UniProt P55072); assay: P97 ATPase biochem assay (ADP Glo); type: biochemical
Method: The ATPase assay is performed according the following protocol: Purified enzyme (20 nM p97), substrate (20 μM ATP) and a dose titration of compounds are mixed in buffer (50 mM TRIS pH 7.5, 20 mM MgCl2, 0.02% TX-100, 1 mM DTT, 0.2% (v/v) glycerol) and incubated at 37° C. for 15 minutes. The reaction is terminated and the level of product generated is measured using the ADP Glo Assay Kit (Promega, Madison Wis.). Plotting product generated versus compound concentration and using a four-parameter fit model generates an IC50 value for each compounds.

[2] = tested on: A549 K48; assay: A549 K48 cell intensity (lysine-48 poly-ubiquitin accumulation, immunofluorescence); type: cell-based; conditions: Homo sapiens
Method: Image-analysis is used to generate quantitative data from these assays that can be fit to a four-parameter sigmoid curve to derive IC50 values. Substrates of the ubiquitin-proteasome system, such as p53, are monitored after tumor cell lines are incubated with compounds for several hours. Accumulation of these proteins indicates an inhibition of proteasome-mediated degradation. Accumulation of lysine-48 chain linkage of poly-ubiquitin is also monitored by immunofluorescence as an indicator of ubiquitin-proteasome system inhibition. Both LC3 and SQSTM1 are mediators of autophagy. The localization and amounts of these proteins are monitored by immunofluorescence and report on the activity and inhibition of autophagy in response to p97 inhibition.

[3] = 20 nM p97, 20 μM ATP, 37° C., 15 minutes, read-out: p97 biochem IC50

Chain of p97 (P55072 whole entry): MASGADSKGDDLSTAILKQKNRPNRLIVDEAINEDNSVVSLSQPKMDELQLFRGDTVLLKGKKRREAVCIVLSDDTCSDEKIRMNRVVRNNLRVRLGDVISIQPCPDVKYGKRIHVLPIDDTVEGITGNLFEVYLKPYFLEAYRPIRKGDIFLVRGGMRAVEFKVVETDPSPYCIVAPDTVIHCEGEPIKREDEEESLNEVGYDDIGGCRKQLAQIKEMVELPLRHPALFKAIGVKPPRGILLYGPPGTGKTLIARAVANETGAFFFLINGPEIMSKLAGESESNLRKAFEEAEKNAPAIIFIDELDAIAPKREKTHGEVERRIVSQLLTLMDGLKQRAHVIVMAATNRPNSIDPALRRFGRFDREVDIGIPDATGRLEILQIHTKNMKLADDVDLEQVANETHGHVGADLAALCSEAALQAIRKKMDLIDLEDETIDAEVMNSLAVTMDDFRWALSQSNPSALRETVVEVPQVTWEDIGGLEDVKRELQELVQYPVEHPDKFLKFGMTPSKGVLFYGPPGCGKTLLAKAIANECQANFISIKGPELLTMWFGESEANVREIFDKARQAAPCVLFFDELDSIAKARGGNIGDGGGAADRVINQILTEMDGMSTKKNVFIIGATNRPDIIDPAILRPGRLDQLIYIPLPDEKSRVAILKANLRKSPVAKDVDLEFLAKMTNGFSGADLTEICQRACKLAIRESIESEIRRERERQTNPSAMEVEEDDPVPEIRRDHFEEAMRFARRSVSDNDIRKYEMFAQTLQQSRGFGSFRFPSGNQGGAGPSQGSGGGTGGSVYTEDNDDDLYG

| Structure (SMILES) | IC50 ([1]; read-out: p97 IC50) [µM] | IC50 [2] [µM] | IC50 [1, 3] [µM] |
| --- | --- | --- | --- |
| Clc1cc2ccccc2n1-c1nc2c(c(NCc3ccccc3)n1)CCCC2 [N-benzyl-2-(2-chloro-1H-indol-1-yl)-5,6,7,8-tetrahydroquinazolin-4-amine] | < 0.1 | < 10 | – |
| NC(=O)NCc1cc2ccccc2n1-c1nc2c(c(NCc3ccccc3)n1)CCCC2 [({1-[4-(benzylamino)-5,6,7,8-tetrahydroquinazolin-2-yl]-1H-indol-2-yl}methyl)urea] | < 0.1 | < 10 | – |
| Cc1cc2c(C#N)cccc2n1-c1nc2c(c(NCc3ccccc3)n1)CN(C)CC2 [1-[4-(benzylamino)-6-methyl-5H,6H,7H,8H-pyrido[4,3-d]pyrimidin-2-yl]-2-methyl-1H-indole-4-carbonitrile] | < 0.1 | < 10 | – |
| Cc1cc2c(C(N)=O)cccc2n1-c1nc2c(c(NCc3ccccc3)n1)CNCC2 [1-[4-(benzylamino)-5H,6H,7H,8H-pyrido[4,3-d]pyrimidin-2-yl]-2-methyl-1H-indole-4-carboxamide] | < 0.1 | < 10 | – |
| Cc1cc2c(C(N)=O)cccc2n1-c1nc2c(c(NCc3ccccc3)n1)COCC2 [1-[4-(benzylamino)-5H,7H,8H-pyrano[4,3-d]pyrimidin-2-yl]-2-methyl-1H-indole-4-carboxamide] | – | < 10 | – |
| CN(C)Cc1cc2ccccc2n1-c1nc2c(c(NCc3ccccc3)n1)CCCC2 [N-benzyl-2-{2-[(dimethylamino)methyl]-1H-indol-1-yl}-5,6,7,8-tetrahydroquinazolin-4-amine] | < 0.3 | < 10 | – |
| CS(=O)(=O)NCc1cc2ccccc2n1-c1nc2c(c(NCc3ccccc3)n1)CCCC2 [N-({1-[4-(benzylamino)-5,6,7,8-tetrahydroquinazolin-2-yl]-1H-indol-2-yl}methyl)methanesulfonamide] | < 0.3 | < 10 | – |
| Cc1nc2c(C#N)cccc2n1-c1nc2c(c(NCc3ccccc3)n1)CCCC2 [1-[4-(benzylamino)-5,6,7,8-tetrahydroquinazolin-2-yl]-2-methyl-1H-1,3-benzodiazole-4-carbonitrile] | < 0.1 | < 10 | – |
| COC(=O)NCc1cc2ccccc2n1-c1nc2c(c(NCc3ccccc3)n1)CCCC2 [methyl N-({1-[4-(benzylamino)-5,6,7,8-tetrahydroquinazolin-2-yl]-1H-indol-2-yl}methyl)carbamate] | < 0.3 | < 10 | – |
| OCc1cc2ccccc2n1-c1nc2c(c(NCc3ccccc3)n1)CCCC2 [{1-[4-(benzylamino)-5,6,7,8-tetrahydroquinazolin-2-yl]-1H-indol-2-yl}methanol] | < 0.1 | < 10 | – |
| COc1cc2c(C#N)cccc2n1-c1nc2c(c(NCc3ccccc3)n1)COCC2 [1-[4-(benzylamino)-5H,7H,8H-pyrano[4,3-d]pyrimidin-2-yl]-2-methoxy-1H-indole-4-carbonitrile] | < 0.1 | < 10 | – |
| COc1cc2c(C#N)cccc2n1-c1nc2c(c(NCc3ccccc3)n1)CCCC2 [1-[4-(benzylamino)-5,6,7,8-tetrahydroquinazolin-2-yl]-2-methoxy-1H-indole-4-carbonitrile] | < 0.1 | < 10 | – |
| COc1cc2c(C#N)cccc2n1-c1nc2c(c(NCc3ccccc3)n1)CNCC2 [1-[4-(benzylamino)-5H,6H,7H,8H-pyrido[4,3-d]pyrimidin-2-yl]-2-methoxy-1H-indole-4-carbonitrile] | < 0.3 | – | – |
| Cc1cc2ccccc2n1-c1nc2c(c(NCc3ccccc3)n1)CN(C(C)C)CC2 [N-benzyl-2-(2-methyl-1H-indol-1-yl)-6-(propan-2-yl)-5H,6H,7H,8H-pyrido[4,3-d]pyrimidin-4-amine] | < 0.3 | – | – |
| CC(=O)N1CCc2c(nc(C3C(C)=Cc4ccccc43)nc2NCc2ccccc2)C1 (stereo not drawn) | – | – | < 2 |
| CCN1CCc2c(nc(-n3c(CN)cc4ccccc43)nc2NCc2ccccc2)C1 | – | – | < 2 |
| CC(N)c1cc2ccccc2n1-c1nc2c(c(NCc3ccccc3)n1)CCCC2 (stereo not drawn) | – | – | < 2 |
| NC(=O)NCc1cc2ccccc2n1-c1nc2c(c(NCc3ccccc3)n1)CCCC2 [drawing 231] | – | – | < 2 |
| Cc1nc2ccccn2c1-c1nc2c(c(NCc3ccccc3)n1)CCCC2 [N-benzyl-2-{2-methylimidazo[1,2-a]pyridin-3-yl}-5,6,7,8-tetrahydroquinazolin-4-amine] | < 0.3 | – | – |
| Cc1cc2c(C#N)cccc2n1-c1nc2c(c(NCc3ccccc3)n1)COCC2 [1-[4-(benzylamino)-5H,7H,8H-pyrano[4,3-d]pyrimidin-2-yl]-2-methyl-1H-indole-4-carbonitrile] | < 0.1 | – | – |

The remaining lines, values ahead:

| IC50 ([1]; read-out: p97 IC50) [µM] | IC50 [2] [µM] | IC50 [1, 3] [µM] | Structure (SMILES) |
| --- | --- | --- | --- |
| < 0.1 | < 10 | – | COCCOc1cccc2c(NCc3ccccc3)nc(-n3c(C)cc4ccccc43)nc12 [N-benzyl-8-(2-methoxyethoxy)-2-(2-methyl-1H-indol-1-yl)quinazolin-4-amine] |
| < 0.3 | < 10 | – | COCCOc1cccc2c(NCc3ccccc3)nc(-n3c(OC)nc4ccccc43)nc12 [N-benzyl-2-(2-methoxy-1H-1,3-benzodiazol-1-yl)-8-(2-methoxyethoxy)quinazolin-4-amine] |
| < 0.3 | < 10 | – | COc1cccc2c(NCc3ccccc3)nc(-n3c(/C=C/S(C)(=O)=O)cc4ccccc43)nc12 [N-benzyl-2-{2-[(E)-2-methanesulfonylethenyl]-1H-indol-1-yl}-8-methoxyquinazolin-4-amine] |
| < 0.1 | < 10 | – | CCOc1cc2ccccc2n1-c1nc2c(c(NCc3ccccc3)n1)CCCC2 [N-benzyl-2-(2-ethoxy-1H-indol-1-yl)-5,6,7,8-tetrahydroquinazolin-4-amine] |
| < 0.3 | < 10 | – | COc1cccc2c(NCc3ccccc3)nc(-n3c(C(C)N)cc4ccccc43)nc12 (stereo not drawn) [2-[2-(1-aminoethyl)-1H-indol-1-yl]-N-benzyl-8-methoxyquinazolin-4-amine] |
| < 0.1 | < 10 | – | COc1cccc2c(NCc3ccccc3)nc(-n3c(OC)cc4ccccc43)nc12 [N-benzyl-8-methoxy-2-(2-methoxy-1H-indol-1-yl)quinazolin-4-amine] |
| < 0.1 | < 10 | – | COCCOc1cccc2c(NCc3ccccc3)nc(-n3c(CO)cc4ccccc43)nc12 [{1-[4-(benzylamino)-8-(2-methoxyethoxy)quinazolin-2-yl]-1H-indol-2-yl}methanol] |
| – | – | < 25 | COc1cccc2c(NCc3nccs3)nc(-n3c(N)nc4ccccc43)nc12 |
| – | – | < 5 | COCc1nc(-n2c(N)nc3ccccc32)nc(NCc2ccccc2)c1C |
| – | – | < 2 | COc1nc2ccccc2n1-c1nc2c(c(NCc3ccccc3)n1)CNCC2 |
| < 0.3 | – | – | COCCOc1cccc2c(NCc3ccccc3)nc(-n3c(C)nc4ccccc43)nc12 [N-benzyl-8-(2-methoxyethoxy)-2-(2-methyl-1H-1,3-benzodiazol-1-yl)quinazolin-4-amine] |
| < 0.1 | – | – | COc1cccc2c(NCc3ccccc3)nc(-c3c(C)[nH]c4ccccc34)nc12 [N-benzyl-8-methoxy-2-(2-methyl-1H-indol-3-yl)quinazolin-4-amine] |
| – | – | < 2 | NCCOc1cccc2c(NCc3ccccc3)nc(-n3c(N)nc4ccccc43)nc12 |
| < 0.1 | – | – | COc1cccc2c(NCc3ccccc3)nc(-n3c(/C=C(/C#N)C(N)=O)cc4ccccc43)nc12 [(2Z)-3-{1-[4-(benzylamino)-8-methoxyquinazolin-2-yl]-1H-indol-2-yl}-2-cyanoprop-2-enamide] |
| – | – | < 2 | COCc1cc2ccccc2n1-c1nc2c(c(NCc3ccccc3)n1)CCCC2 |
| – | – | < 2 | COc1cccc2c(NCc3ccccc3)nc(N3C(=O)Cc4ccccc43)nc12 |
| – | – | < 2 | NC(=O)COc1cccc2c(NCc3ccccc3)nc(-n3c(N)nc4ccccc43)nc12 |
| < 0.1 | – | – | COCCOc1cccc2c(NCc3ccccc3)nc(-n3c(CNS(C)(=O)=O)cc4ccccc43)nc12 [N-({1-[4-(benzylamino)-8-(2-methoxyethoxy)quinazolin-2-yl]-1H-indol-2-yl}methyl)methanesulfonamide] |
| – | – | < 2 | COCCOc1cccc2c(NCc3ccccc3)nc(-n3c(OC)nc4ccccc43)nc12 [drawing 222] |
| – | – | < 2 | COc1cccc2c(NCc3ccccc3)nc(-n3c(/C=C(/C#N)C(N)=O)cc4ccccc43)nc12 [drawing 243] |
| – | – | < 10 | COc1cccc2c(NCc3ccccc3)nc(Nc3ncc[nH]3)nc12 |
| < 0.1 | – | – | COCCOc1cccc2c(NCc3ccccc3)nc(-n3c(CN(C)C)cc4ccccc43)nc12 [N-benzyl-2-{2-[(dimethylamino)methyl]-1H-indol-1-yl}-8-(2-methoxyethoxy)quinazolin-4-amine] |
| < 0.1 | – | – | COCCOc1cccc2c(NCc3ccccc3)nc(-n3c(CNC(N)=O)cc4ccccc43)nc12 [({1-[4-(benzylamino)-8-(2-methoxyethoxy)quinazolin-2-yl]-1H-indol-2-yl}methyl)urea] |
| – | – | < 5 | COc1cccc2c(NCc3ccccc3)nc(-n3c(NC(C)=O)nc4ccccc43)nc12 |
| – | – | < 5 | COc1cccc2c(NCc3ccccc3)nc(N(C(N)=O)c3ccccc3)nc12 |
| – | – | < 2 | CNc1nc2ccccc2n1-c1nc(NCc2ccccc2)c2cccc(OC)c2n1 |
| – | – | < 2 | COc1cccc2c(NCc3ccccc3)nc(-n3cnc4ccccc43)nc12 |
| < 0.3 | – | – | COc1cccc2c(NCc3ccccc3)nc(-n3c(/C=C/C#N)cc4ccccc43)nc12 [(2E)-3-{1-[4-(benzylamino)-8-methoxyquinazolin-2-yl]-1H-indol-2-yl)prop-2-enenitrile] |
